Measured values: patent US20250146007A1 (priority 2022, published 2025)
Entries after “also recorded” stand apart in the source; their conditions may differ.

Tests used:
C. acnes tdk knock-out = format: cell-based, Cutibacterium acnes
PCi-SEB_Cau sebocytes = format: cell-based, human
[1] = system: Neutrophil gelatinase-associated lipocalin 2 (NGAL) protein; settings: human, in vivo; cited from earlier work

O=c1[nH]c(=O)n([C@H]2C[C@H](O)[C@@H](CO)O2)cc1F [FUDR, 5-fluoro-2′-deoxyuridine]
growth of tdk knock-out (knock-in) strain on FUDR plates (C. acnes tdk knock-out): could grow; also recorded: no growth inhibiting effect

CC1=C(/C=C/C(C)=C/C=C/C(C)=C\C(=O)O)C(C)(C)CCC1 [isotretinoin, 13-cis retinoic acid]
decrease in sebum production compared to AA treated cells (PCi-SEB_Cau sebocytes): 1.8 fold | increase in NGAL protein in treated patients [1]: 7 fold

CC[C@H]1OC(=O)[C@H](C)[C@@H](O[C@H]2C[C@@](C)(OC)[C@@H](O)[C@H](C)O2)[C@H](C)[C@@H](O[C@@H]2O[C@H](C)C[C@H](N(C)C)[C@H]2O)[C@](C)(O)C[C@@H](C)C(=O)[C@H](C)[C@@H](O)[C@]1(C)O [ery, erythromycin]
growth of tdk knock-out (knock-in, ermE) strain on erythromycin plates (C. acnes tdk knock-out): could grow
